Experimental data from BindingDB's records for doi:10.1016/j.ejmech.2019.01.048 (University of Berne, 2019).

Biological target: Transient receptor potential cation channel subfamily M member 4 (Homo sapiens, UniProt Q8TD43)
Test: Inhibition of TRPM4 (unknown origin)

Chain of Transient receptor potential cation channel subfamily M member 4 (Q8TD43 whole entry): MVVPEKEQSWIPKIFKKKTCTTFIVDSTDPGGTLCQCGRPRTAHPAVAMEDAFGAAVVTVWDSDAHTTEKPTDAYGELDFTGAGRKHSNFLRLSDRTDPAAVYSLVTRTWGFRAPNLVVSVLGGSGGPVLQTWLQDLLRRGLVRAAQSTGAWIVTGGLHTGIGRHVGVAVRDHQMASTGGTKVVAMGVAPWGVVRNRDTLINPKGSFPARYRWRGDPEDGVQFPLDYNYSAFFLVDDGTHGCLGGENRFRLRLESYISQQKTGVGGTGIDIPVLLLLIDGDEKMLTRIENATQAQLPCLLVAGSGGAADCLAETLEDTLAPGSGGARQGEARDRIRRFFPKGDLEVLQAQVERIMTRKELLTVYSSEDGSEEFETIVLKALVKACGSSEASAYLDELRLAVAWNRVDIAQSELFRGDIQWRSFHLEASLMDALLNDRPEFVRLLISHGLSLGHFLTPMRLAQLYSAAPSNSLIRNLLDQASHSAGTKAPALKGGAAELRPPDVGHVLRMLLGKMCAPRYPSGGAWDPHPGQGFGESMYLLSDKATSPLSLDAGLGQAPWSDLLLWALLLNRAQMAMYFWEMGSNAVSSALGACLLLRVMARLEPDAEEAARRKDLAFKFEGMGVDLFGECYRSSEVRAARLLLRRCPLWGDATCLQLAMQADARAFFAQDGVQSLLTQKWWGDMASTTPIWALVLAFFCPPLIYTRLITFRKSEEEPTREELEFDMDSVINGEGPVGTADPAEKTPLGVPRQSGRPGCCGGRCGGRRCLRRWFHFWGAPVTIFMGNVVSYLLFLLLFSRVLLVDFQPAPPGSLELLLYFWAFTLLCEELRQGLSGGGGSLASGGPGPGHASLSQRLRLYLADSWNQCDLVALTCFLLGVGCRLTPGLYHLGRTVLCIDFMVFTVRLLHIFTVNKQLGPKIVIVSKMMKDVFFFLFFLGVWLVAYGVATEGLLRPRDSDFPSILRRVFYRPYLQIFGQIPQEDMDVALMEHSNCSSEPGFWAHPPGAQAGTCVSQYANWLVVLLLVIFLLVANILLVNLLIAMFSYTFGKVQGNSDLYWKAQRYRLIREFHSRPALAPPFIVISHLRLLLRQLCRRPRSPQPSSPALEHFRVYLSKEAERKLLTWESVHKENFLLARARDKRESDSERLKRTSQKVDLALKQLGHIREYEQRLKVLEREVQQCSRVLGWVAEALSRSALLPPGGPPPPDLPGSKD

With `Oc1cc2ccccc2c2ccccc12` the IC50 was 29 µM.
